Biological target: Disintegrin and metalloproteinase domain-containing protein 17 (Homo sapiens, UniProt P78536)
Assay: Inhibition of TACE (unknown origin) using fluorogenic LAQAVRSSSR peptide as a substrate by fluorometric assay

Disintegrin and metalloproteinase domain-containing protein 17, sequence (P78536 whole entry, the tested form may be a part): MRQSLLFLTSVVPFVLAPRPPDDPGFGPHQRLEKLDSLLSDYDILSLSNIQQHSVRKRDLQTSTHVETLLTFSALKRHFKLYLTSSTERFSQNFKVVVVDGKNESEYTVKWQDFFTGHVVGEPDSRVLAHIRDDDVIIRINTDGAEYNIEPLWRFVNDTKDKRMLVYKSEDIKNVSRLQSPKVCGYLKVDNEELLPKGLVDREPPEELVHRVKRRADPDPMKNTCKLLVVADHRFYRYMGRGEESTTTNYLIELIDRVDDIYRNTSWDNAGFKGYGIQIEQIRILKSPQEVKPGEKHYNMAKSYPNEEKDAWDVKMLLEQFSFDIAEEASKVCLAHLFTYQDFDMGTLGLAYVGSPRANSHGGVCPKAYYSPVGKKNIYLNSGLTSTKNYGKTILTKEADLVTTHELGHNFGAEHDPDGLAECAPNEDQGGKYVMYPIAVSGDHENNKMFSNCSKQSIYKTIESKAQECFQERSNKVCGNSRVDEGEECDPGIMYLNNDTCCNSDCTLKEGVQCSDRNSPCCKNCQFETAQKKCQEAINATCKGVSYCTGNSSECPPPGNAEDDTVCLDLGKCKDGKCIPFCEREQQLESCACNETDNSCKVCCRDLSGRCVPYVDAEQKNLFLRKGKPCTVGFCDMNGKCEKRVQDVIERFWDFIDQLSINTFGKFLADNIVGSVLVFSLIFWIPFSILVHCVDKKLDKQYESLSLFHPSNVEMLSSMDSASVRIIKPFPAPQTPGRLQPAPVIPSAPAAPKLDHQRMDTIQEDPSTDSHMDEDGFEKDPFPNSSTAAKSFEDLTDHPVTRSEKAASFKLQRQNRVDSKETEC

IC50 [nM] | SMILES
4 | CC#CCOc1ccc(S(=O)(=O)NC(C)C(=O)NO)cc1 (configuration not stated)
0.3 | CNC(=O)[C@H](Cc1cccc2c1CCCC2)NC(=O)[C@H](CC(C)C)[C@H](C)C(=O)NO
